System: BphK-KKS
Assay: absorbance at […] nm, non-linear regression
Assay type: biochemical, Acidovorax sp. KKS102
Details: GSH held constant, CDNB varied 0.3-2.1 mM, 50 mM sodium phosphate pH 6.5; read-out: CDNB / K m

O=[N+]([O-])c1ccc(Cl)c([N+](=O)[O-])c1 [CDNB, 1-chloro-2,4-dinitrobenzene] showed a Km of 2580 ± 140 µM.

Reference: PMC6396153, “Dechlorination of polychlorobiphenyl degradation metabolites by a recombinant glutathione S‐transferase from Acidovorax sp. KKS102” (FEBS Open Bio, 2019)
